In series [1] the test system is SKMG3-CD8-EGFR cells. In words: Cell cycle distribution by flow cytometry. As to conditions: 10 μM NGI-1, 4 Gy. The format is cell-based, human. The protocol: (§1) Cell cycle distribution was determined following treatment with vehicle, radiation and/or 10 uM NGI-1. Cells were trypsinized and centrifuged, washed once with ice-cold PBS, fixed with ice-cold 70% ethanol and stored overnight at −20° C. After washing twice with PBS, they were incubated for 30 minutes at room temperature in 200 μL of Guava Cell Cycle Reagent (Guava Technologies). Cytofluorometric acquisitions were performed on a LSRII cytometer (BD Biosciences). First-line analysis was performed with FlowJo software, upon gating of the events characterized by normal forward and side scatter parameters and discrimination of doublets in a FSC-A vs. FSC-H bivariate plot. Approximately 50,000 cells were analyzed per experiment.
(§2) The CD8 cDNA was a gift from Paula Kavathas (Yale University). The CD8-EGFR was constructed according to a strategy that generated a constitutively active IGF-1R (24). The extracellular domain of CD8 was PCR amplified with a 5′ XbaI and 3′ SalI restriction site and cloned in-frame with the intracellular kinase domain of EGFR using the pDCB5-EGFR plasmid. SKMG3-CD8-EGFR cells were generated by Lipofectamine (Life Technologies) transfection of the plasmid followed by selection with 500 μg/ml G418. Expression of CD8-EGFR was validated by western blot analysis of the wild type and CD8-EGFR.
A general note: Flow cytometry measures light scatter and fluorescence of single cells or particles in a stream.

For series [2], the system named is T98G cells. In words: Phospho-γH2AX foci formation after radiation. The format is cell-based. As to conditions: 2 hours after 4 Gy, 10 μM NGI-1. The procedure:
(§3) To determine histone H2AX phosphorylation (γH2AX), cells were cultured on glass cover slips and pre-treated with either vehicle or NGI-1 for 48 hours followed by radiation treatment. Samples were fixed with 4% neutral-buffered formaldehyde, washed (0.1% triton in PBS for 30 minutes) and incubated for 1 hour with protein-blocking solution (PBS containing 10% normal goat-horse serum; Sigma-Aldrich, Saint Louis, Mich., US). Next, the slides were incubated with primary anti-phospho-histone γH2AX S139 (1:500, Millipore-Upstate, Billerica, Mass., US) followed by incubation with secondary antibody Alexa Fluor 555-conjugated goat anti-mouse IgG (1:750, Molecular probes/Invitrogen, Carlsbad, Calif., US), for 1 hour at room temperature. Nuclei were stained using DAPI containing vectashield mounting solution (Vector Labs). Confocal cellular images were captured with an inverted Zeiss LSM 510 Pascal laser confocal microscope (C. Zeiss, Jenna, Germany), using a 63/1.4 plan-apochromat objective. Five randomly selected fields s per slide were analyzed. Cells were counted using the ImageJ program, public domain Java image processing software.

The subject of series [3] is D54 cells. The series is described as follows: Phospho-γH2AX foci formation after radiation. The format is cell-based. The protocol:
as §3

In series [4] the test system is SKMG3-CD8-EGFR cells. In words: Radiation clonogenic survival assay. Format: cell-based, human. As to conditions: 10 μM NGI-1. The procedure:
Radiation (XRT) doses of either 0, 2, 4, or 6 Gy were delivered with a Precision X-ray 320-kV orthovoltage unit at a dose rate of 2 Gy/45 seconds (PXI X-Ray Systems). Twenty-four hours following XRT cells were washed, trypsinized, and re-plated in triplicate wells to determine clonogenic survival. […] Growth rates were determined by CellTiter 96 Non-Radioactive Cell Proliferation Assay (Promega; Madison, Wis., USA) according to the manufacturer's directions. For each experiment one thousand cells were seeded in triplicate wells in 96-wells plates. The following day, cell cultures were treated with NGI-1 (1 μM), Temozolomide (TMZ, 10 μM), Etoposide (VP-16, 0.1 μM) or combinations for 5 days. Absorbance at 540 nm was measured using the spectrophotometric reading (BioTek Synergy 2; Winooski, Vt. USA).
as §2

Series [5] concerns PC9-ERLucT cells. The series is described as follows: ER-LucT glycosylation reporter luciferase assay in vitro. As to conditions: after 24 h, equivalent concentrations of NGI-1 dissolved in DMSO or via NP. Format: cell-based. From the text:
To test the hypothesis that NGI-1 could enhance TKI therapy in EGFR mutant and TKI resistant NSCLC, a NGI-1 nanoparticle (NGI-NP) formulation was developed by nanoprecipitation of a NGI-1 PEI complex. All nanoparticle preparations were confirmed by DLS and the average particle size was 120±10 nm. To assess the activity of the NGI-1 NPs a PC9 cell line with stable expression of the ER-LucT glycosylation reporter (Contessa at al., Clin Cancer Res., 16(12):3205-14 (2010)), a luciferase engineered to be expressed in the endoplasmic reticulum with N-linked glycosylation sites, was established. Under normal cell conditions glycosylation of the luciferase blocks activity and luminescence. However, under conditions of decreased glycosylation luciferase activity is restored with a measurable increase in luciferase activity. Equivalent concentrations of NGI-1, either dissolved in DMSO or via NP, activated luminescence˜6 fold after 24 h in these PC9-ERLucT cells in vitro (FIG. 13A).

For series [6], the system named is non-transformed cell lines, primary human dermal fibroblasts, and neural progenitor cells. As to conditions: Lopez-Sambrooks 2016, Hafirassou 2017, Puschnik 2017; cited from earlier work.
In series [7] the test system is HCC827-GR cells. In words: Confocal microscopy of EGFR and phosphorylated MET localization. Format: cell-based. As to conditions: detected in control samples. The protocol:
For immunofluorescence, HCC827-GR cell lines were grown on glass coverslips to 80% confluence. Cell cultures were washed with PBS and fixed with 4% (w/v) formaldehyde in PBS for 30 min at 37° C. After washing with PBS, cells were permeabilized with 0.1% v/v Triton X-100 in PBS for 10 min, rinsed three times in PBS and treated with 5% w/v bovine serum albumin for 1 h. Cells were then incubated overnight at 4° C. with mouse anti-EGFR pAb (sc-03; Santa Cruz Biotechnology; 1:800) and rabbit anti-MET mAb (Cell Signaling; 1:1,000) primary antibodies and for 1 h at room temperature with either Alexa Fluor 543-conjugated goat anti-rabbit IgG or Alexa Fluor 488-conjugated goat anti-mouse IgG (ThermoFisher Scientific; 1:1,000) secondary antibodies. All antibodies were diluted in PBS containing 5% w/v bovine serum albumin. Nuclei were stained using ToPro3 (Invitrogen). Confocal cellular images were captured with an inverted Zeiss LSM 510 Pascal laser confocal microscope (Carl Zeiss, Jenna, Germany), using a 63/1.4 Plan-Apochromat objective.

Series [8] deals with U251 cells. The series is described as follows: Cell cycle distribution by flow cytometry. The format is cell-based. The protocol:
as §1

Series [9] concerns T98G cells. The series is described as follows: Cell cycle distribution by flow cytometry. Format: cell-based. The protocol:
as §1

In series [10] the test system is D54 cells. In words: Cell cycle distribution by flow cytometry. The format is cell-based. The procedure:
as §1

In series [11] the test system is AKT. In words: Radiation-induced AKT activation. The format is cell-based.

As for `Cc1cnc(NC(=O)c2cc(S(=O)(=O)N(C)C)ccc2N2CCCC2)s1` [NGI-1, 5-(dimethylsulfamoyl)-N-(5-methyl-1,3-thiazol-2-yl)-2-(pyrrolidin-1-yl)benzamide], the “G1 cell cycle arrest caused by NGI-1, alone and after exposure to radiation” value in [1] was “eliminated the G1 cell cycle arrest”. For the same compound, in series [2], the “enhancement of phospho-γH2AX foci formation” value is recorded as “no enhancement”. The “increase of phospho-γH2AX foci formation, time course” value in series [3] (4 Gy + 10 μM NGI-1, radiation alone 6.4-fold) is listed as 8.6 fold. The “increase of phospho-γH2AX foci formation compared to radiation alone (factor)” value in series [3] (2 hours after 4 Gy, 10 μM NGI-1) came to 1.3. In [4], the “radiosensitization by NGI-1 (radiation clonogenic survival)” value is recorded as “prevented radiosensitization”. For the same compound, the “activation of luminescence (luciferase activity)” value in series [5] was around 6 fold. Moreover, the toxicity result in series [6] is given as “no significant toxicity”. Besides, in series [7], the “EGFR detected near the cell surface” value is given as “not in NGI-1 treated samples”. The “cells in G1 (G1 arrest)” value in series [8] (48 hours of 10 uM NGI-1, printed 64% vs. 72%) was found to be 64%; in series [10] (48 hours of 10 uM NGI-1, control 75%) it was 83%. Also, the “G1 arrest six hours after 4 Gy” value in series [8] (NGI-1 + 4 Gy) and in [9] (NGI-1 + 4 Gy) was “not for either the T98G or U251 cells” in each case. Also, the G1 arrest result in [9] (48 hours of NGI-1) is “no arrest”. Also, the “cells in G1 six hours after 4 Gy” value in [10] (NGI-1 + 4 Gy, 66% without NGI-1) turned out to be 77%. In addition, the “radiation-induced activation of AKT” value is “not in the CD8-EGFR expressing SKMG3 cells” in series [11] (CD8-EGFR expressing SKMG3 cells) and “blocks” in [11] (parental SKMG3 cells). In addition, the AKT activation result in series [11] (T98G cells) is “does not block AKT activation”.

The values above are taken from US10765638B2, “Particle formulation with polycation complex” (Yale University, priority 2017, dated 2020).
